In assay [1] the test system is MDA-MB-231 xenograft tumors. Briefly: Xenograft tumor growth in NOD-SCID mice with chemotherapy treatment. The class given is in vivo, mouse. The following applies: three doses Taxol/paclitaxel 10 mg/kg or two doses Doxorubicin 5 mg/kg; for growth of control tumors compared to vehicle: GFP (Control) tumors. Here is the method:
Mena or Mena^INV expression blocks Taxol efficacy on tumors in treated animals. Mice with xenograft tumors were generated by injection of MDA-MB-231 cells expressing GFP (Control), GFP-Mena (Mena) or GFP-Mena^INV (Mena^INV) into the mammary fat pads of NOD-SCID mice. […] Tumor size was measured before and after treatment. […] These in vivo findings are consistent with the results obtained in the in vitro data, and indicate that Men/Mena^INV promotes resistance to Taxol as judged by tumor growth.
Xenograft tumor generation and in vivo chemotherapy treatment. All animal experiments were approved by the MIT Division of Comparative Medicine. 2 million MDA-MB-231 cells expressing different MENA isoforms (in PBS and 20% collagen I) were injected into the 4th right mammary fat pad of six week-old female NOD-SCID mice (Taconic). When the tumors reached 1 cm in diameter, mice were treated every five days with either three doses of paclitaxel at 10 mg/kg in 1% DMSO, 3% PEG (MW 400), 1% Tween 80 in PBS by intra-peritoneal injection. In parallel, mice were treated with only in 1% DMSO, 3% PEG (MW 400), 1% Tween 80 in PBS as a vehicle control. One day after the last injection, tumors were measured and mice were use for intravital imaging and then sacrificed. Their tumors and lungs were fixed in 10% formalin overnight, their bone marrow were collected using PBS and cultured in DMEM with 10% fetal bovine serum. The number of tumor cell colonies in cultured bone morrow was counted 1 month after collection. The number of metastasis in each lobe of the lung were counted from lung H&E stained sections visualized by light microscopy and counted by two blinded individuals. Each tumor group contained 3-5 mice.
MENA isoform expression is associated with increased tumor growth in vivo during paclitaxel treatment. Whether MENA-associated paclitaxel resistance could also be observed in vivo was examined. Xenograft tumors were generated by injecting MDA-MB-231 cells expressing MENA isoforms into the mammary fat pads of NOD-SCID mice. Mice were treated with paclitaxel once tumors reached 1 cm in diameter (FIG. 30A).

For assay [2], the system named is MDA-MB-231 xenograft tumors. In words: Ki67 and cleaved caspase-3 immunostaining of xenograft tumor sections. It counts as in vivo, mouse. Conditions: for proliferation (Ki67) in control tumors: MDA-MB-231 control tumors; for proliferation (Ki67) in control tumors / proliferation (Ki67) in Mena and Mena^INV tumors: vs vehicle; for proliferation (Ki67) in Mena and Mena^INV tumors: Mena- and Mena^INV-expressing tumors; for apoptosis (cleaved caspase-3, CC3): all three types of tumor. From the text: The effects of increased Mena/Mena^INV levels on taxol treatment in vitro (increased fractions of viable cells) and in vivo (resistance to anti-tumor growth effects) could arise from increased proliferation, decreased apoptosis or both. To evaluate the effects of Mena/Mena^INV on proliferation and cell death, tumor sections were stained with antibodies to Ki67 (a proliferation marker) and cleaved caspase-3 (apopotic marker). […] Therefore, elevated Mena/Mena^INV expression allows continued tumor growth in treated animals by blocking the anti-proliferative effects of taxol treatment.
(§1) Immunohistochemistry for Examples 16-22. Tumors dissected from NOD/SCID mice were fixed in 10% buffered formalin and embedded in paraffin. Tissue sections (5 μm thick) were deparaffinized followed by antigen retrieval using Citra Plus solution (Biogenex). After treatment with 3% H2O2, sections were blocked with serum, incubated with primary antibodies overnight at 4° C. and fluorescently labeled secondary antibodies at room temperature for 2 hours. Sections were stained using anti-MENA (1:500), biotinylated anti-MENA^INV (1:500), anti-CC3 (1:200), anti-Ki67 (1:200) and DAPI. Fluorochromes on secondary antibodies included AlexaFluor 488, 594 or 647 (Jackson Immunoresearch). Sections were mounted in Fluoromount mounting media and imaged at room temperature. Z series of images were taken on a DeltaVision microscope using Softworx acquisition, an Olympus 40×1.3 NA plan apo objective and a Photometrics CoolSNAP HQ camera. At least 10 fields were captured for each tumor, with at least 3 tumors per tumor group.
As such, proliferation and apoptosis was examined by quantifying the intensity of cells positive for Ki67 and CC3, respectively by immunostaining.

The test system of assay [3] is Mena, Mena^INV. In words: Mena and Mena^INV immunofluorescence in Control tumors from treated mice. The class given is in vivo, mouse. Conditions: tissue sections of Control tumors from treated mice. Here is the method:
Taxol treatment induces increased Mena protein expression in vitro and in vivo. As high level of Mena or Mena^INV expression correlated with low response to Taxo, we hypothesized that Taxol treatment might affect Mena expression. […]. After 72 h of treatment with the drug, the expression level of Mena was 70% higher than in vehicle-treated cells.
as §1, with “Z series of images were taken on a DeltaVision microscope using Softworx acquisition, an Olympus 40×1.3 NA plan apo objective and a Photometrics CoolSNAP HQ camera. At least 10 fields were captured for each tumor, with at least 3 tumors per tumor group.” left out
Paclitaxel treatment selects for high MENA expression in vitro and in vivo. […] First, endogenous MENA expression by Western Blot in 5 breast cancer cell lines that were exposed to 100 nM of paclitaxel or a vehicle control were analyzed (FIG. 33A).

Assay [4] concerns MDA-MB-231 cells. Briefly: Time-lapse microscopy of cell division. Conditions: for increase in time spent in cell division: 10 nM paclitaxel vs vehicle. It counts as cell-based, human. As to the method:
In vitro imaging. Glass bottom dishes were coated with Co11agen at 0.1 mg/mL diluted in PBS for 1 hour at 37° C. Cells expressing different MENA isoform were treated with paclitaxel at 1, 10 or 100 nM or vehicle and immediately plated on the glass bottom dishes. 30 minutes later, cells were imaged overnight, with one image acquired every 10 minutes for 16 hours on a Nikon spinning disk with a 20× objective and an Andor/NeoZyla camera. Individual cells were manually tracked using ImageJ and Manual Tracking plug-in. Data were analyzed using the chemotaxis tool developed by IBIDI. For analysis of time spent in cell division, the time between when the mother cell first rounds up, to when both daughter cells have spread out on substrate was measured. The percentage of successful cell divisions was quantified by counting the number of cell divisions that lead to two surviving daughter cells. Data are pooled from at least 50 cells tracked in three independent experiments.
One of the key steps in paclitaxel-induced cell death is cell arrest in the G2/M phases of the cell cycle. […] Time-lapse microscopy was performed to study the cell division phenotypes in more detail, and imaged cells expressing MENA isoforms while adherent on collagen (FIGS. 35D, 35E, 35F).

Assay [5] concerns microtubules (MT). Briefly: MT length image analysis. Conditions: 231-MENA^INV cells, 10 nM paclitaxel 24 hours. It counts as cell-based, human.
Assay [6] has as its system MDA-MB-231 cells. In words: Proliferation assay (cell count) with combinations of paclitaxel and MEKi. The following applies: 231-MENA and 231-MENA^INV cells. The class given is cell-based, human.

The values that follow come from US20170168056A1, “METHODS AND COMPOSITIONS FOR DETECTING AND MODULATING CANCER CELLS” (Massachusetts Institute of Technology, priority 2015, published 2017).

On to `CC(=O)O[C@H]1C(=O)[C@@]2(C)[C@H]([C@H](OC(=O)c3ccccc3)[C@]3(O)C[C@H](OC(=O)[C@H](O)[C@@H](NC(=O)c4ccccc4)c4ccccc4)C(C)=C1C3(C)C)[C@]1(OC(C)=O)CO[C@@H]1C[C@@H]2O` [paclitaxel], for which the “growth of control tumors compared to vehicle” value in assay [1] is reported as “significantly decreased the growth of 231-Control tumors”; in assay [1] (listed as Taxol), “significantly decreased growth of control tumors”. The “growth / response of Mena or Mena^INV tumors” value in assay [1] (Mena or Mena^INV expressing tumors) was “unaffected”. In addition, the “proliferation (Ki67) in control tumors” value is reported as “decreased the amount of Ki67 staining” in assay [2] and “significantly decreased” in assay [2] (listed as Taxol). Besides, the figures for the “proliferation (Ki67) in Mena and Mena^INV tumors” value in assay [2] and in assay [2] (listed as Taxol) were “failed to decrease the numbers of Ki67-positive cells” and “failed to decrease proliferation”, respectively. Also, the “apoptosis (cleaved caspase-3, CC3)” value is “increase in cell death as marked by CC3 positive cells in all tumors” in assay [2] and “similar, significant apoptotic responses” in assay [2] (listed as Taxol). Moreover, the “Mena and Mena^INV levels in Control tumors compared to vehicle” value is “significant increases in total MENA levels” in assay [3]; “increase in expression of both global Mena levels and the Mena^INV isoform” in assay [3] (listed as Taxol). Besides, the “decrease in the number of successful divisions” value in assay [4] (231-Control cells, 10 nM paclitaxel) is 40%. Also, the “increase in time spent in cell division” value is “four-fold” in assay [4] (231-Control cells); “two-fold” in assay [4] (231-MENA and 231-MENA^INV cells). Besides, in assay [4] (paclitaxel treated 231-MENA and 231-MENA^INV cells), the successful cell divisions result is recorded as “over 90%”. Further, in assay [5], the MT length result is given as “small but significant increase”. Besides, the “concentrations needed to obtain high levels of cell death relative to 231-Control cells” value in assay [6] is on record as “higher concentrations of each drug were needed”.
